ChEMBL document CHEMBL1130783, “Synthesis and antiviral activity of novel isodideoxy nucleosides with exocyclic methylene” (Bioorg Med Chem Lett, 1998)
≈ marks a conversion by molar mass, not a printed value.

Experiments:
Human betaherpesvirus 5 = assay: Compound was evaluated for the antiviral activity against HCMV; assay type: functional, organism-based
Human alphaherpesvirus 1 = assay: Compound was evaluated for the antiviral activity against HSV-1; assay type: functional, organism-based
[1] = test system: Human immunodeficiency virus 1; assay: Compound was evaluated for the antiviral activity against HIV-1; assay type: functional, organism-based
Human alphaherpesvirus 2 = assay: Compound was evaluated for the antiviral activity against HSV-2; assay type: functional, organism-based
[2] = Compound was evaluated for its cytotoxicity.; assay type: functional

Compound | EC50 (Human betaherpesvirus 5) [µg/mL] | EC50 (Human alphaherpesvirus 1) [µg/mL] | EC50 [1] [µg/mL] | EC50 (Human alphaherpesvirus 2) [µg/mL] | IC50 [2] [µg/mL]
C=C1[C@H](CO)OC[C@@H]1n1cnc2c(N)ncnc21 | 33.3 (≈ 135 µM) | > 100 | > 100 | > 100 | > 100
C=C1[C@H](CO)OC[C@@H]1n1ccc(=O)[nH]c1=O | 10.6 (≈ 47.3 µM) | 100 (≈ 446 µM) | 100 (≈ 446 µM) | 100 (≈ 446 µM) | 100 (≈ 446 µM)
C=C1[C@H](CO)OC[C@@H]1n1cnc2c(O)nc(N)nc21 | > 100 | > 100 | > 100 | > 100 | > 100
C=C1[C@H](CO)OC[C@@H]1n1cnc2c(O)ncnc21 | > 100 | 35 (≈ 141 µM) | > 100 | > 100 | > 100
C=C1[C@H](CO)OC[C@@H]1n1ccc(N)nc1=O | > 100 | > 100 | > 100 | > 100 | > 100
Nc1nc2c(ncn2COCCO)c(=O)[nH]1 [ACYCLOVIR] | – | 1.05 (≈ 4.68 µM) | – | 5.12 (≈ 22.7 µM) | 250 (≈ 1110 µM)
Nc1nc2c(ncn2COC(CO)CO)c(=O)[nH]1 [GANCICLOVIR] | 0.74 (≈ 2.9 µM) | – | – | – | > 10
Cc1cn([C@H]2C[C@H](N=[N+]=[N-])[C@@H](CO)O2)c(=O)[nH]c1=O [ZIDOVUDINE] | – | – | 0.00132 (≈ 0.00494 µM) | – | 1 (≈ 3.74 µM)
